In this test the test system is pathogens of rice blast. In kind it is cell-based. Particulars: 25° C., 7 days, elongation length of hyphae.

Read-outs that look alike come from different tables or passages of the source.

In turn, `COc1nc2nc3ccccc3n2c(F)c1C(F)(F)F` [Example 4, 4-fluoro-2-methoxy-3-(trifluoromethyl)benzo[4,5]imidazo[1,2-a]pyrimidine] gave a Control value (test solution 1000 ppm, 1,000 μl on oatmeal culture medium) of 66 and a Control value (test solution 2000 ppm, 1,000 μl on oatmeal culture medium) of 96.

The values are drawn from patent publication US12428400B2 (priority 2020, dated 2025).
